In patent publication US20230219986A1, “NOVEL AMINOPYRIMIDINE EGFR INHIBITOR” (QILU PHARMACEUTICAL CO., LTD., priority 2020, published 2023):
Read-outs that look alike come from different tables or passages of the source.

How the values were obtained:
Format in all cases: cell-based
[1] = molecular target: Ba/F3 L858R/T790M/C797S EGFR triple mutant cell line (Homo sapiens, UniProt P00533, T790M/C797S/L858R, cells depend on it); assay: Cell proliferation inhibition experiment (CellTiter-Glo), Ba/F3 L858R/T790M/C797S; conditions: 72 hours, Cell Titer-Glo, read-out: Ba/F3 (L858R/T790M/C797S) IC50
Procedure: (§1) 3) 30 nL of gradient diluted compound was transferred into the 384-well experimental plate using Echo 550 (Labcyte) at a DMSO final concentration of 0.1%, and the culture plate was incubated in a cell incubator for 72 hours (37° C., 5% CO2).
(§2) 4) 30 μL of Cell Titer-Glo reagent was added to each well and left for 30 minutes at room temperature and protected from light.
(§3) 5) Envision microplate reader (PerkinElmer) detected chemiluminescence signals.
(§4) 6) GraphPad Prism 8 software was used for data analysis to obtain the IC50 of the compounds of the present disclosure and the positive control.

[2] = molecular target: Ba/F3 De119/T790M/C797S EGFR triple mutant cell line (Homo sapiens, UniProt P00533, T790M/C797S, cells depend on it, form not given); assay: Cell proliferation inhibition experiment (CellTiter-Glo), Ba/F3 De119/T790M/C797S; conditions: Ba/F3 Del19/T790M/C797S EGFR triple mutant cells, 72 hours, Cell Titer-Glo; read-out: Ba/F3 (Del19/T790M/C797S) IC50
Procedure: as §1, §2, §3, §4

[3] = tested on: EGFR wild-type cell line A431; assay: Cell proliferation inhibition experiment (CellTiter-Glo), A431; conditions: Homo sapiens, A431 cells, Cell Titer-Glo, read-out: A431 EGFR WT IC50
Procedure: A431 cells, purchased from ATCC.
1) A431 cells were inoculated in a 384-well culture plate at a density of 800 cells per well, 30 μL per well, placed in a cell incubator, and cultured for 24 hours (37° C., 5% CO2).
as §1, §2, §3, §4

Ba/F3 De119/T790M/C797S EGFR triple mutant cell line, sequence (P00533 with tags, fused parts or gaps DEL746-750/T790M/C797S, form open): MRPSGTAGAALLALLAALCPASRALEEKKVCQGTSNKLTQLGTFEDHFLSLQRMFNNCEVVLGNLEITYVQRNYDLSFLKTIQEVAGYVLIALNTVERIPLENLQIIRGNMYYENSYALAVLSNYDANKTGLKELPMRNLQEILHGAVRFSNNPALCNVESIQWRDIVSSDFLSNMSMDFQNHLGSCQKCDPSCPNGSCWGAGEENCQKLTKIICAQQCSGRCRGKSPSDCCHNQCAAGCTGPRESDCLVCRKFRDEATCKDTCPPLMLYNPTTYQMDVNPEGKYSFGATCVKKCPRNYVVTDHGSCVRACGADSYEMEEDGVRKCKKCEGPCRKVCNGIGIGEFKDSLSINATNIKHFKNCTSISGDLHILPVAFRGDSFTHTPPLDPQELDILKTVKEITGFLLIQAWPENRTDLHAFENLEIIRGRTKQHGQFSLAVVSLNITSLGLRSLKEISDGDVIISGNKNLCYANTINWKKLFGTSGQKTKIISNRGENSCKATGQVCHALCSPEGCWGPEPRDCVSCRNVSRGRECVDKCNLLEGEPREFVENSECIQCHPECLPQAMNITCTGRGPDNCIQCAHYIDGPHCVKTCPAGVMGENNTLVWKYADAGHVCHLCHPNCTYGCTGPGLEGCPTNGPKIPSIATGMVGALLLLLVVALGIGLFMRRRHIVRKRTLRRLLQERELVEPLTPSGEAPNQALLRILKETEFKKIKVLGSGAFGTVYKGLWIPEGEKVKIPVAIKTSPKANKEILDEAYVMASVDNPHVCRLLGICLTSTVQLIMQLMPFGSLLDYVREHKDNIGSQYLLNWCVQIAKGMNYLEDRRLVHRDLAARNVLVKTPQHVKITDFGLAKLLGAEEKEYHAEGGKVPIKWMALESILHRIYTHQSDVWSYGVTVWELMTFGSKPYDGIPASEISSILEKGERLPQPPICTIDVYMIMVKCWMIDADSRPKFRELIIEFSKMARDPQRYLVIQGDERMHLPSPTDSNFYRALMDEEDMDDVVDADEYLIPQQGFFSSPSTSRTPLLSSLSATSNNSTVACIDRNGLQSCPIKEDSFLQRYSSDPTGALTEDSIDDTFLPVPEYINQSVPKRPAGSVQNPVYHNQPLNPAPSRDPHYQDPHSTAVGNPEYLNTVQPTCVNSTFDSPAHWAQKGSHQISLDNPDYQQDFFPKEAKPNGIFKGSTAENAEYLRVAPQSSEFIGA
Ba/F3 L858R/T790M/C797S EGFR triple mutant cell line, sequence (P00533 whole entry T790M/C797S/L858R): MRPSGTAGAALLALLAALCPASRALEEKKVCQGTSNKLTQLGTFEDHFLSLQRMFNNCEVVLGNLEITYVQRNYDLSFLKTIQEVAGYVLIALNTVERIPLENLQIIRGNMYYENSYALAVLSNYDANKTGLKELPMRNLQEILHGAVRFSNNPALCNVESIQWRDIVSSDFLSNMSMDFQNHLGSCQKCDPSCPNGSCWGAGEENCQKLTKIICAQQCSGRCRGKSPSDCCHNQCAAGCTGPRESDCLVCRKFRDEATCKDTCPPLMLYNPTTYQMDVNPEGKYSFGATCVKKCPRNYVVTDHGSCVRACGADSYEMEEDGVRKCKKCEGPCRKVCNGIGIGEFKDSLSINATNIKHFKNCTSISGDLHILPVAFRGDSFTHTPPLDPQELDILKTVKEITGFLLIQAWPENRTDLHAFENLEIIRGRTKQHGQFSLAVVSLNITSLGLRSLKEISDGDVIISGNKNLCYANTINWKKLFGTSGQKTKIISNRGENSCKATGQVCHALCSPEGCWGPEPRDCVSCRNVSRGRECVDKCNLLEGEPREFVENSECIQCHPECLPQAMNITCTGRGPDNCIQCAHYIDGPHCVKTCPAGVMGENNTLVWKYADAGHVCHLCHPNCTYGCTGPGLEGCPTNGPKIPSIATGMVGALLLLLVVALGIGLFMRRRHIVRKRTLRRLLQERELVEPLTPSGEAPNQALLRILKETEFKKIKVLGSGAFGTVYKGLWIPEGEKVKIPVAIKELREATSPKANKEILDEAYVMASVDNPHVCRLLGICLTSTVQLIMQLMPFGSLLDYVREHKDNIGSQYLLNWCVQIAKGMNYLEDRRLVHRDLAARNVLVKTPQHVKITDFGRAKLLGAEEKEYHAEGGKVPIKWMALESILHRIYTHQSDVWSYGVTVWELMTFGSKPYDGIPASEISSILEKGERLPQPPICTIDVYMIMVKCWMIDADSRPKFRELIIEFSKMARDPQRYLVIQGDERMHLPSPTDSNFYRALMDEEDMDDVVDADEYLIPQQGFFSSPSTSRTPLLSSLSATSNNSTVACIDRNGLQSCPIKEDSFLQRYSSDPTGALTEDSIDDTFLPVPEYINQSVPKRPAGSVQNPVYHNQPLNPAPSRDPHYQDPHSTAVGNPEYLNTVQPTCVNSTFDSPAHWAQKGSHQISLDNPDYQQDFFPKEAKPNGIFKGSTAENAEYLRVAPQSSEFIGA

SMILES: COc1cc(N2CCOCC2)c(-n2cc(C)cn2)cc1Nc1ncc(Br)c(Nc2ccc3nccnc3c2P(C)(C)=O)n1 [compound 73]
- GI50 [1]: 536 nM
- GI50 [2]: 326 nM
- IC50 ([3]; A-431, 72 h): 3260 nM

SMILES: COc1ccc(-n2ccnc2)cc1Nc1ncc(Br)c(Nc2ccc3nccnc3c2P(C)(C)=O)n1 [compound 50]
- GI50 [2]: 34.1 nM
- IC50 ([3]; A-431, 72 h): 508 nM

SMILES: COc1nc(N2CCN(C)CC2)c(-c2cnn(C)c2)cc1Nc1ncc(Br)c(Nc2ccc3nccnc3c2P(C)(C)=O)n1 [compound 65]
- GI50 [1]: 17.3 nM
- GI50 [2]: 6.68 nM
- IC50 ([3]; A-431, 72 h): 72.4 nM

SMILES: COc1cc(N2CCC(C)(N)CC2)c(-c2cnn(C)c2)cc1Nc1ncc(Br)c(Nc2ccc3nccnc3c2P(C)(C)=O)n1 [compound 113]
- GI50 [1]: 176 nM
- GI50 [2]: 74.5 nM
- IC50 ([3]; A-431, 72 h): 189 nM

SMILES: COc1cc(N2CCC(N3CCN(C)CC3)CC2)ccc1Nc1ncc(Cl)c(Nc2ccccc2P(C)(C)=O)n1 [Brigatinib, reference compound]
- GI50 [1]: 320 nM
- GI50 [2]: 103 nM
- IC50 ([3]; A-431, 72 hours): 771 nM

SMILES: Cc1cc(Nc2ncc(Br)c(Nc3ccc4nccnc4c3P(C)(C)=O)n2)cc(-c2cnn(C)c2)c1N1CCOCC1 [compound 100, (6-((5-bromo-2-((3-methyl-5-(1-methyl-1H-pyrazol-4-yl)-4-morpholinylphenyl)amino)pyrimidin-4-yl)amino)quinoxalin-5-yl)dimethylphosphine oxide]
- GI50 [1]: 6.2 nM
- GI50 [2]: 2.87 nM
- IC50 ([3]; A-431, 72 h): 29.1 nM

SMILES: Cn1cc(-c2cc(Nc3ncc(Br)c(Nc4ccc5nccnc5c4P(C)(C)=O)n3)cc(F)c2N2CCOCC2)cn1 [compound 46]
- GI50 [1]: 11.7 nM
- GI50 [2]: 6.71 nM
- IC50 ([3]; A-431, 72 h): 67.2 nM

SMILES: COc1cc(P(C)(C)=O)c(-c2cnn(C)c2)cc1Nc1ncc(Br)c(Nc2ccc3nccnc3c2P(C)(C)=O)n1 [compound 55]
- GI50 [2]: 1230 nM
- IC50 ([3]; A-431, 72 h): ≥ 5000 nM

SMILES: COc1cc(N2CCOCC2)c(-c2cnn(C)c2)c(F)c1Nc1ncc(Br)c(Nc2ccc3nccnc3c2P(C)(C)=O)n1 [compound 62]
- GI50 [1]: 195 nM
- GI50 [2]: 73.6 nM
- IC50 ([3]; A-431, 72 h): 3380 nM

SMILES: CNC(=O)c1ccccc1Nc1nc(Nc2cc(-c3cnn(C)c3)c(N3CCOCC3)cc2OC)ncc1Br [compound 52]
- GI50 [2]: 26.7 nM
- IC50 ([3]; A-431, 72 h): 158 nM

SMILES: COc1cc(N2CC3(COC3)C2)c(-c2cnn(C)c2)cc1Nc1ncc(Br)c(Nc2ccc3nccnc3c2P(C)(C)=O)n1 [compound 109]
- GI50 [1]: 62.8 nM
- GI50 [2]: 46.3 nM
- IC50 ([3]; A-431, 72 h): 547 nM

SMILES: COc1cc(N2CCNCC2)c(-c2cnn(C)c2)cc1Nc1ncc(Br)c(Nc2ccc3nccnc3c2P(C)(C)=O)n1 [compound 117]
- GI50 [1]: 120 nM
- GI50 [2]: 41 nM
- IC50 ([3]; A-431, 72 h): 157 nM

SMILES: COc1cc(N2CCN(C)C(C)(C)C2)c(-c2cnn(C)c2)cc1Nc1ncc(Br)c(Nc2ccc3nccnc3c2P(C)(C)=O)n1 [compound 108]
- GI50 [1]: 24.5 nM
- GI50 [2]: 12.5 nM
- IC50 ([3]; A-431, 72 h): 92.8 nM

SMILES: COc1cc(N2CCN(CCO)CC2)c(-c2cnn(C)c2)cc1Nc1ncc(Br)c(Nc2ccc3nccnc3c2P(C)(C)=O)n1 [compound 99]
- GI50 [1]: 104 nM
- GI50 [2]: 40.6 nM
- IC50 ([3]; A-431, 72 h): 209 nM

SMILES: COc1cc(N2CCOCC2)c(-c2cncn2C)cc1Nc1ncc(Br)c(Nc2ccc3nccnc3c2P(C)(C)=O)n1 [compound 91]
- GI50 [1]: 430 nM
- GI50 [2]: 278 nM
- IC50 ([3]; A-431, 72 h): 3550 nM

SMILES: COc1cc(N2CCOCC2)c(-n2cccn2)cc1Nc1ncc(Br)c(Nc2ccc3nccnc3c2P(C)(C)=O)n1 [compound 61]
- GI50 [1]: 794 nM
- GI50 [2]: 312 nM
- IC50 ([3]; A-431, 72 h): 6580 nM

SMILES: CN1CCN(c2ncc(Nc3ncc(Br)c(Nc4ccc5nccnc5c4P(C)(C)=O)n3)cc2-c2cnn(C)c2)CC1 [Compound 70, (6-((5-bromo-2-((5-(1-methyl-1H-pyrazol-4-yl)-6-(4-methylpiperazin-1-yl)pyridin-3-yl)amino)pyrimidin-4-yl)amino)quinoxalin-5-yl)dimethylphosphine oxide]
- GI50 [1]: 348 nM
- GI50 [2]: 117 nM
- IC50 ([3]; A-431, 72 h): 157 nM

SMILES: COc1nc(N2CCC3(CC2)COC3)c(-c2cnn(C)c2)cc1Nc1ncc(Br)c(Nc2ccc3nccnc3c2P(C)(C)=O)n1 [compound 67]
- GI50 [1]: 59.2 nM
- GI50 [2]: 42.3 nM
- IC50 ([3]; A-431, 72 hours): 622 nM

SMILES: COc1cc(N2CCOCC2)c(-c2ccnn2C)cc1Nc1ncc(Br)c(Nc2ccc3nccnc3c2P(C)(C)=O)n1 [compound 90]
- GI50 [1]: 446 nM
- GI50 [2]: 251 nM
- IC50 ([3]; A-431, 72 h): 4390 nM

SMILES: COc1c(Nc2ncc(Br)c(Nc3ccc4nccnc4c3P(C)(C)=O)n2)cc(-c2cnn(C)c2)c(N2CCOCC2)c1C [Compound 68, (6-((5-bromo-2-((2-methoxy-3-methyl-5-(1-methyl-1H-pyrazol-4-yl)-4-morpholinylphenyl)amino)pyrimidin-4-yl)amino)quinoxalin-5-yl)dimethylphosphine oxide]
- GI50 [1]: 372 nM
- GI50 [2]: 114 nM
- IC50 ([3]; A-431, 72 h): 1390 nM

SMILES: CN1CCC2(CC1)CCN(c1ccc(Nc3ncc(Br)c(Nc4ccc5nccnc5c4P(C)(C)=O)n3)cc1-c1cnn(C)c1)CC2 [compound 76]
- GI50 [1]: 9.96 nM
- GI50 [2]: 5.4 nM
- IC50 ([3]; A-431, 72 h): 20.7 nM

SMILES: COc1c(Nc2ncc(Br)c(Nc3ccc4nccnc4c3P(C)(C)=O)n2)cc(-c2cnn(C)c2)c(N2CCC(N(C)C)CC2)c1F [compound 95]
- GI50 [1]: 40.9 nM
- GI50 [2]: 15.7 nM
- IC50 ([3]; A-431, 72 h): 96.7 nM

SMILES: COc1cc(N2CCOCC2)c(-c2cnn(C)c2)cc1Nc1ncc(Br)c(Nc2ccccc2S(=O)(=O)C(C)C)n1 [compound 54]
- GI50 [2]: 103 nM
- IC50 ([3]; A-431, 72 h): 638 nM

SMILES: COc1cc(N2CCC(N(C)C)CC2)c(-c2cnn(C)c2)cc1Nc1ncc(Br)c(Nc2ccc3nccnc3c2P(C)(C)=O)n1 [compound 96]
- GI50 [1]: 9.39 nM
- GI50 [2]: 3.52 nM
- IC50 ([3]; A-431, 72 h): 44.2 nM

SMILES: Cn1cc(-c2cc(Nc3ncc(Br)c(Nc4ccc5nccnc5c4P(C)(C)=O)n3)ccc2N2CCOCC2)cn1 [compound 48]
- GI50 [1]: 6.03 nM
- GI50 [2]: 3.02 nM
- IC50 ([3]; A-431, 72 h): 51.1 nM

SMILES: COc1cc(N2CCOCC2)c(C#N)cc1Nc1ncc(Br)c(Nc2ccc3nccnc3c2P(C)(C)=O)n1 [compound 59]
- GI50 [2]: 26.2 nM
- IC50 ([3]; A-431, 72 h): 345 nM

SMILES: COc1nc(N(C)CCN(C)C)c(-c2cnn(C)c2)cc1Nc1ncc(Br)c(Nc2ccc3nccnc3c2P(C)(C)=O)n1 [compound 45]
- GI50 [2]: 7.65 nM
- IC50 ([3]; A-431, 72 h): 102 nM

SMILES: COc1cc(N2CCOCC2)c(-c2cncnc2)cc1Nc1ncc(C)c(Nc2ccc3nccnc3c2P(C)(C)=O)n1 [compound 60]
- GI50 [2]: 89.3 nM
- IC50 ([3]; A-431, 72 h): 658 nM

SMILES: COc1cc(C2=CCN(C)CC2)c(-c2cnn(C)c2)cc1Nc1ncc(Br)c(Nc2ccc3nccnc3c2P(C)(C)=O)n1 [compound 177]
- GI50 [1]: 35 nM
- GI50 [2]: 25.6 nM
- IC50 ([3]; A-431, 72 h): 59.3 nM

SMILES: COc1nc(N2CCOCC2)c(-c2cnn(C)c2)cc1Nc1ncc(C)c(Nc2ccc3nccnc3c2P(C)(C)=O)n1 [compound 63]
- GI50 [1]: 24.9 nM
- GI50 [2]: 14.3 nM
- IC50 ([3]; A-431, 72 h): 331 nM

SMILES: COc1cc(N2CCCCC2)c(-c2cnn(C)c2)cc1Nc1ncc(Br)c(Nc2ccc3nccnc3c2P(C)(C)=O)n1 [compound 66]
- GI50 [1]: 10.8 nM
- GI50 [2]: 3.04 nM
- IC50 ([3]; A-431, 72 h): 575 nM
